Data: patent publication US20220152228A1, “COMPOSITIONS AND METHODS FOR RADIOTHERAPY USING CHELATED RADIOTHERAPEUTIC AGENTS AND NON-TARGET TISSUE BLOCKADE” (Washington University, priority 2019, published 2022)
Where two headings read alike, the source gives them in different places.

Key:
[1] = aqueous solution, physiological pH, Ba2+ complex; cited from earlier work
human serum proteins = conditions: for activity in early protein fractions (5-15 mL), affinity with proteins: 2 h of incubation in serum proteins
Procedure: Next, the stability of the complex to serum proteins was determined in vitro, simulating the complex biological environment encountered in vivo.
Alternatively, size exclusion chromatography (SEC) was utilized to identify each species in solution. […] Chelated activity % was measured integrating gamma counts of macropa peak (20 mL) over the sum counts of all collected fractions (0-47 mL) (see e.g., FIG. 3E).

[2] = after administration to mice
Procedure: The whole gastrointestinal tracts from stomach to rectum were rapidly harvested and placed directly on plastic wraps set over autoradiographic phosphor screens for 90 min exposure in the dark. The autoradiographic prints were read on Cyclone Phosphor Imager (Packard), 300 DPI confocal laser stimulation; 16-bit ADC; utilizing FIJI processing with median filter. For FIJI readings of the autoradiographic files, data were converted to 32-bit format utilizing “square and scale n16” plug in. Radioactive signal intensity was translated into dynamic light units (see e.g., FIG. 12A). Signal intensity was plotted over the GI tract length from the stomach (start=0) to the cecum (˜200 mm) comparing various time points (see e.g., FIG. 12B). Results were comprised as well into profiles curves per organ region of interests including: stomach, cecum or the whole intestinal tract (see e.g., FIG. 12C).

[3] = tested on: human duodenal enteroid monolayers
Procedure: An in vitro patient-derived organoid model of functional gut epithelium was developed by plating human duodenal enteroid monolayers on a permeable trans-well scaffold.
Intestinal cellular models—human duodenal enteroids and caco-2 monolayers—were grown on a trans-well polymeric filter plate divided in a lower and an upper incubation compartments modeling basolateral and apical side of the epithelium, respectively.
Human duodenal enteroids (see e.g., FIG. 13A) were reconstituted and grown from healthy patient-derived cellular crypts tissue samples. Both differentiated (DF) and undifferentiated (UDF) conditions were tested. DF monolayers were induced by removal of Wnt3A and R-spondin factors from the incubation media, as described previously.
DF or UDF duodenal enteroids were set and grown on 24-transwell plates for 2 weeks until cell confluency was reached, leading to closed monolayer membranes. […] Temperature-dependent transport 37° C. versus 4° C. was tested on UDF enteroids (see e.g., FIG. 13B). DF versus UDF enteroids phenotypes transfer were compared, selecting monolayers with similar range of TEER (1200<TEER<1800 D/m) (see e.g., FIG. 13C).

colon and duodenum = conditions: mice, uptake in the intestine
Procedure: Animals were fasted and supplemented with Golytely (24 g/350 mL) 2 h prior injections and sacrificed 24 h post administration. Sections (1 cm) of each gastrointestinal region from the duodenum, jejunum, ileum to the colon were rapidly harvested. GI specimen were set onto previously partially solidified OCT gel block, then fully coated with OCT and flash frozen. Gastrointestinal transversal sectioning was conducted utilizing Leica microtome, 10 μm sections. Fresh frozen sections were collected on tape and stored at −20° C.
Gastrointestinal tissue sections were fixed immerging tapes in 10% paraformaldehyde (PFA) for 15 min followed by a washing with PBS 1×. Following fixation, tissues were mounted directly with DAPI and/or TRITC-Phalloidin mounting media under cover slip ready for imaging.
A second fixations was proceeded using 10% PFA and washed with deionized water. Tissues were then reacted using buffer reaction mixtures from Click-iT Plus TUNEL assay. Positive control were conducted, treated similarly with an additional DNAase treatment. Final counterstaining was conducted using Hoechst33342 (1:5000) before mounting taped tissue specimen under cover slip with 30% aqueous glycerol.
For γH2AX staining, tissues were fixed and submitted to blocking serum reagent, 1 h at room temperature. […]

[4] = tested on: metastatic castration-resistant prostate cancer; conditions: mCRPC patients, vs. 11.9 months in control patients; cited from earlier work
[5] = tested on: ^223Ra transport through caco-2 monolayers; experiment: Ion-channel ligand library screen for 223Ra flux through caco-2 monolayers; type: cell-based; conditions: 20 μM, BL to AP, normalized to treatment-free flux
Procedure: Caco-2BBe1 (brush border expressing clone of parent Caco-2 line) monolayers, modelling colon tissue, were used. Caco-2 monolayers were utilized for ion-channel ligand library screening (52 compounds) testing epithelial ion-transport activation or blocking of radioactive transfer (see e.g., FIG. 15A). Caco-2 cells were seeded 15 K cells/well in 96 trans-well filter plate and assayed 10 days post-seeding. […] The screening material was sampled at 20 μM per BL well (n=3/molecules).
The monolayers integrity was monitored using a lucifer yellow permeability assay. The fluorescent tracer was loaded in the AP compartment, and fluorescence permeability was read in the BL vial. % Lucifer Yellow Passage (LYp %) was calculated as the percentile ratio of relative Fluorescence Units-535 nm (FU) of the assayed BL over FU of complete transfer in BL well.
Radioactive reading was accomplished sampling AP compartments on Luma plates and reading the dried luminescence using Topcount scintillation counter. […] Averaged drug-assayed measurements (n=3) were normalized to treatment-free flux.

[6] = 223Ra organ distribution in mice pre-treated with ion-channel modulator; type: in vivo, C57/Bl6 mice
Procedure: Healthy male C57/Bl6 mice were randomized received a combination treatment with intraperitoneal injection of Amiloride (inhibitor, red) or NS-1619 (activator, green) or saline (control, grey) followed by a clinical dose of ^223RaCl2 1 h post-drug administration. Radioactive organ distribution was then measured at 15 min, 1 h and 4 h post ^223Ra treatment. […] Comparing bone uptake, as early as 15 min, osseous absorption is was half for the NS-1619-treated group as compared to the amiloride or the control group.
Male C57Bl/6 aged 10 weeks (n=6 per treated group) were administered intraperitoneally Amiloride (12.5 mg/kg-150 uL 2% v/v DMSO) or NS-1619 (1 mg/kg-150 uL 2% v/v DMSO) or saline 1 h prior ^223RaCl2 i.v. administration (3.7 KBq/100 uL buffer). Animals were kept awake between each injection. 15 min; 1 h and 4 h post ^223Ra administration: blood; spleen; kidney; stomach; duodenum; jejunum; ileum; cecum; colon; muscle; fat and bone tibia were harvested, weighed and gamma counted. Gamma counting was conducting utilizing a Perkin Elmer Wizard2 counter with readings of energies set 150-350 KeV, with 10 min reading for each sample. Standard corresponding to 10% of injected activity were measured as well; allowing for the calculation of % Injected activity (% IA) normalized to tissue weight (% IA/g).

[7] = remark: listed apart in the source
Procedure: The animals were maintained for 20 days with food and water and submitted to blood chemistry analysis (Abaxis Vscan 2) at day 1; 7 and 19 d post-treatment. Weight was monitored for each cohort over 20 days. At the end of the study (day 20 post-treatment), animals were sacrificed and whole limbs and kidneys were harvested for gamma counting and histopathological assessments, respectively.
Kidneys were collected 20 days post-treatment and the tissues were fixed in formalin for 72 h then transferred to saline. Tissues were processed by dehydration, paraffin embedding, and sectioning at 4 μm. Adjacent sections were stained with H&E, PAS and Masson's trichrome.

[8] = human serum proteins, 37° C., 12 days

With `O=C([O-])c1cccc(CN2CCOCCOCCN(Cc3cccc(C(=O)[O-])n3)CCOCCOCC2)n1.[Ba+2]` [[(Ba)macropa]] as the compound, how does the “stability constant (log K′ML,pH7.4)” value [1] read?
The value was 10.74.

For `[Cl][223Ra][Cl]` [^223RaCl2, Radium-223 Dichloride], which “activity in early protein fractions (5-15 mL), affinity with proteins” value (human serum proteins) is on record?
Its value is “no registered activity in the early fractions”.

And the “small bowel and stomach accumulation” value [2]?
The value was “observed within minutes”.

And the “223Ra transport, differentiated versus undifferentiated enteroids” value ([3]; basolateral to lumen compartment, P<0.05)?
Its value is “superior capacity to transport”.

What about the “transport of radioactivity, 37° C. versus 4° C.” value ([3]; undifferentiated enteroids, basolateral to apical) of the same compound?
Its value is “temperature-dependent active transport”.

What about the “apoptosis and DNA damage in cells of the colon and duodenum” value (colon and duodenum) of the same compound?
The value was “increased cell apoptosis and DNA damage”.

What about the median survival [4] of the same compound?
Its median survival is 14.9 months.

And the bone uptake (24 h p.i., macropa study)?
Its bone uptake is 22±1 % IA/g.

And the splenic uptake (24 h p.i., macropa-β-alanine study)?
The splenic uptake was 5.52+/−2.3 % IA/g.

What about the bone uptake (24 h p.i., macropa-β-alanine study, naive skeletally mature mice) of the same compound?
The bone uptake was 9.7±1.66 % IA/g.

With `O=c1[nH]c2cc(C(F)(F)F)ccc2n1-c1cc(C(F)(F)F)ccc1O` [NS-1619] as the compound, how does the “effect on 223Ra transport through monolayers” value [5] read?
The value was “activator”.

What about the “upper GI radioactive uptake (combined % IA of stomach, duodenum, jejunum)” value ([6]; 1 h p.i.) of the same compound?
Its value is “significantly higher”.

And the “upper GI radioactive uptake (combined % IA of stomach, duodenum, jejunum)” value ([6]; 4 h p.i.)?
The value was “No difference”.

With `C/C=C(/C)C(=O)O[C@H]1C(C)=C2[C@H]([C@@H]1OC(=O)CCCCCCC)[C@@](C)(OC(C)=O)C[C@H](OC(=O)CCC)[C@@]1(O)[C@H]2OC(=O)[C@@]1(C)O` [thapsigargin] as the compound, how does the “effect on 223Ra transport through monolayers” value [5] read?
The value was “does not increase transport”.

Which “activity in early protein fractions (5-15 mL), affinity with proteins” value (human serum proteins) does the source give for `O=C([O-])c1cccc(CN2CCOCCOCCN(Cc3cccc(C(=O)[O-])n3)CCOCCOCC2)n1.[223Ra+2]` [[(^223Ra)macropa]] here?
Its value is “no registered activity in the early fractions”.

And the “223Ra retained (chelated activity) after serum protein challenge” value (human serum proteins; [8])?
The value was over 90%.

And the “decomplexation after serum protein challenge” value (human serum proteins; [8])?
The value was 10%.

And the “fold lower bone uptake than free 223Ra” value (15 min and 24 h p.i., FIG. 4C legend)?
Its value is 10-25 fold.

And the “fold lower bone uptake compared to 223RaCl2 in citrate” value (15 min p.i.)?
The value was 10 fold.

And the “fold lower bone uptake compared to 223RaCl2 in citrate” value (24 h p.i.)?
The value was 20 fold.

What about the bone uptake (24 h p.i., macropa study) of the same compound?
Its bone uptake is 1.6±0.2 % IA/g.

What about the excretion route (animal models, compared to bare ion (Xofigo)) of the same compound?
Its excretion route is “quantitatively excreted via renal filtration”.

And the “accumulation in the spleen and the gut” value (compared with 223RaCl2)?
Its value is “prevented accumulation”.

And the “fold higher signal in equal volume of urine (bladder) than 223RaCl2 group” value (early time point (15 min))?
Its value is 300 fold.

And the “complex status in urine after excretion (SEC)” value (urine samples of chelator-administered group)?
Its value is “intact”.

What does the source list for `N=C(N)NC(=O)c1nc(Cl)c(N)nc1N` [Amiloride]?
increase in 223Ra bone-homing (whole legs gamma-counted) versus Radium-223 alone ([7]; combination treatment, 20 days following treatment, P=0.0283): 15%; blood chemistry profile, Radium versus Radium/Amiloride cohorts ([7]; day 1 to day 19 post-treatment): no profile difference; effect on 223Ra transport through monolayers [5]: inhibitor; upper GI radioactive uptake (combined % IA of stomach, duodenum, jejunum) ([6]; 15 min p.i.): lower radioactive content; upper GI radioactive uptake (combined % IA of stomach, duodenum, jejunum) ([6]; 4 h p.i.): No difference; 223Ra sequestration in bone, times higher versus control or NS-1619 ([6]; 4 h p.i., modulator i.p. 1 h before 223RaCl2): over 1.5 times; area under the curve of bone uptake versus 223RaCl2 alone ([6]; combination with 223RaCl2, FIG. 17): significantly larger
